In US6001997A, “Cephalosporins and homologues, preparations and pharmaceutical compositions” (priority 1990, dated 1999):
Converted amounts (≈) assume the structure as drawn. Structures can show the parent of a compound that is named as a salt. Where two headings read alike, the source gives them in different places.

Legend:
E. coli (NCTC 1048) = experiment: MIC values (minimum inhibitory concentration) against a sample E.coli organism; type: cell-based
Text: (§1) The following Examples illustrate the preparation of compounds of the invention and intermediates thereto.

S. aureus (Oxford) = experiment: MIC values (minimum inhibitory concentration) against a sample S.aureus organism; type: cell-based; conditions: in vitro
Text: as §1

[1] = Escherichia coli, NCTC1048, in vitro, E. coli (NCTC 1048), read-out: MIC
[2] = Staphylococcus aureus, read-out: MIC

MIC (E. coli (NCTC 1048); [1]) [µg/mL] | MIC (S. aureus (Oxford); [2]) [µg/mL] | Compound | MIC (E. coli (NCTC 1048); Escherichia coli, NCTC1048) [µg/mL] | MIC (E. coli (NCTC 1048); in vitro, E. coli (NCTC 1048)) [µg/mL] | MIC (S. aureus (Oxford)) [µg/mL]
1 (≈ 2.21 µM) | 4 (≈ 8.82 µM) | CO/N=C(\C(=O)N[C@@H]1C(=O)N2C(C(=O)O)=C(C3CCOC3)CS[C@H]12)c1csc(N)n1 (some centres unmarked) [Example 13] |  |  | 
0.5 | 1 | CO/N=C(\C(=O)N[C@@H]1C(=O)N2C(C(=O)O)=C(C3CCCO3)CS[C@H]12)c1csc(N)n1 (stereo partly drawn) [Example 1, Sodium (6R,7R)-7-[2-(2-Aminothiazol-4-yl)-2-(Z)-methoxy-iminoacetamido]-3-[(RS)-tetrahydrofuran-2-yl]ceph-3-em-4-carboxylate] |  |  | 
0.5 (≈ 1.14 µM) | 0.25 (≈ 0.569 µM) | Nc1nc(/C(=N/O)C(=O)N[C@@H]2C(=O)N3C(C(=O)O)=C(C4CCCO4)CS[C@H]23)cs1 (stereo partly drawn) [Example 5, (6R,7R)-7-[2-(2-Aminothiazol-4-yl)-2-(Z)-hydroxyiminoacet-amido]-3-[(RS)-tetrahydrofuran-2-yl]ceph-3-em-4-carboxylic acid] |  |  | 
1 | 2 | COC[C@@H]1CCC(C2=C(C(=O)O)N3C(=O)[C@@H](NC(=O)/C(=N\OC)c4csc(N)n4)[C@H]3SC2)O1 (stereo partly drawn) [Example 17, sodium (6R,7R)-7-[2-(2-aminothiazol-4-yl)-2-(Z)-methoxyiminoacetamido]-3-(5-methoxymethyltetrahydrofuran-2-yl)ceph-3-em-4-carboxylate] |  |  | 
1 | 0.5 | CO/N=C(\C(=O)N[C@@H]1C(=O)N2C(C(=O)O)=C([C@H]3CCCO3)CS[C@H]12)c1csc(N)n1 [Example 9, sodium (6R,7R)-7-[2-(2-aminothiazol-4-yl)-2-(Z)-methoxy-iminoacetamido]-3-[(R)-tetrahydrofuran-2-yl]ceph-3-em-4-carboxylate] |  |  | 
16 | 1 | CC/C=C(\C(=O)N[C@@H]1C(=O)N2C(C(=O)O)=C([C@@H]3CCCO3)CS[C@H]12)c1csc(N)n1 [Example 18, sodium (6R,7R)-7-[2-(2-aminothiazol-4-yl)-(Z)-pent-2-enamido]-3-[(S)-tetrahydrofuran-2-yl]ceph-3-em-4-carboxylate] |  |  | 
 |  | sodium 7- [2- (2-aminothiazol-4-yl)-2- (Z)-methoxyimino-acetamido]-3- (tetrahydrofuran-2-yl) -1-carba-1-dethiaceph-3-em-4-carboxylate [Example 24] |  | 0.12 | 1.00
 |  | CO/N=C(\C(=O)N[C@@H]1C(=O)N2C(C(=O)[O-])=C(C3CC[C@@H](C)O3)CS[C@H]12)c1csc(N)n1.[Na+] (mixture of isomers) [Example 27, Sodium (6R,7R)-7-12-(2-aminothiazol-4-yl)-2-(Z)-methoxy-iminoacetamidol-3-[(5R,2SR)-5-methyltetrahydrofuran-2-yl]ceph-3-em-4-carboxylate] |  | 4.00 | 1.00
> 32 | 0.5 | CO/N=C(\C(=O)N[C@@H]1C(=O)N2C(C(=O)O)=C([C@@H]3CCCO3)CS[C@H]12)c1ccco1 [Example 28, Sodium (6R,7R)-7-[2-(furan-2-yl)-2-(Z)-methoxyimino-acetamido]-3-[(S)-tetrahydrofuran-2-yl]ceph-3-em-4-carboxylate] |  |  | 
0.25 | 8 | Nc1nc(/C(=N/OCC(=O)O)C(=O)N[C@@H]2C(=O)N3C(C(=O)O)=C(C4CCCO4)CS[C@H]23)cs1 (stereo partly drawn) [Example 21, (6R,7R)-7-[2-(2-aminothiazol-4-yl)-2-(Z)-carboxymethoxy-iminoacetamido]-3-[(RS)-tetrahydrofuran-2-yl]-ceph-3-em-4-carboxylic acid, disodium salt] |  |  | 

Compound | MIC (E. coli (NCTC 1048); [1]) [µg/mL] | MIC (S. aureus (Oxford); [2]) [µg/mL] | MIC (E. coli (NCTC 1048); Escherichia coli, NCTC1048) [µg/mL] | MIC (E. coli (NCTC 1048); in vitro, E. coli (NCTC 1048)) [µg/mL] | MIC (S. aureus (Oxford)) [µg/mL]
CO/N=C(\C(=O)N[C@@H]1C(=O)N2C(C(=O)O)=C([C@@H]3CCCO3)CS[C@H]12)c1csc(N)n1 [Example 7, Sodium (6R,7R)-7-[2-(2-aminothiazol-4-yl)-2-(Z)-methoxy-iminoacetamido]-3-[(S)-tetrahydrofuran-2-yl]ceph-3-em-4-carboxylate] | 0.5 | 1 |  |  | 
N[C@@H](C(=O)N[C@@H]1C(=O)N2C(C(=O)[O-])=C([C@@H]3CCCO3)CS[C@H]12)c1ccc(O)cc1.[Na+] [Example 22, Sodium (6R,7R)-7-[(R)-2-Amino-2-(4-hydroxyphenyl)acetamido]-3-[(S)-tetrahydrofuran-2-yl]ceph-3-em-4-carboxylate] |  | 0.25 | 8 |  | 
CO/N=C(\C(=O)N[C@@H]1C(=O)N2C(C(=O)[O-])=C(C3CCCCO3)CS[C@H]12)c1csc(N)n1.[Na+] (mixture of isomers) [Example 3, Sodium (6R,7R)-7-[2-(2-Aminothiazol-4-yl)-2-(Z)-methoxyiminoacetamido]-3-[(RS) -tetrahydropyran-2-yl]-ceph-3-em-4-carboxylate] |  | 1 | 2 |  | 
